Experimental data: patent publication US20030114393A1 (priority 1999, published 2003)
Read-outs that look alike come from different tables or passages of the source.

Legend:
[1] = tested on: MCF-7-AdrR cells; assay: cells; conditions: for reduction of cell viability by adriamycin in the presence of the steroidal alkaloid: 10 μM alkaloid fixed, increasing adriamycin up to 10 μM, compared with drug-free incubations; for EC50: Homo sapiens, read-out: EC50 of sensitization of the cells to adriamycin; for reduction of cell survival by the steroidal alkaloid alone: alkaloid alone (10 μM), MCF-7-AdrR, MTT
Protocol: Cells were plated in 96-well plates at a density of 4×10^3 cells/well in 0.1 ml drug-free DMEM containing 5% fetal calf serum, and incubated at 37° C. for 48 h. After this time, cytotoxic drugs (adriamycin or vinblastine) were added to the wells at the indicated concentrations, in the absence or presence of the tested steroidal alkaloids, and the cells were further incubated for an additional 48-72 h. The cytotoxic activity of the drugs was then determined using a standard MTT cell survival assay (Hansen, M. B. et al., J. Immunol. Meth 119: 203-210. The […] reagent (diluted from a 5 mg/ml solution in PBS) was added to all the wells at a final concentration of 0.6 mg/ml and the cells were further incubated at 37° C. for 2 or 3 h. The reaction was terminated by adding 100 μl/well of an extraction solution consisting of 20% (w/v) sodium dodecyl sulfate (SDS) in 50% aqueous dimethyl formamide solution, pH 4.8. The plates were left overnight at room temperature in the dark, following which the absorbance was read at 570-nm using an ELISA plate reader. […] Data points represent the mean±S.D. of a quadruplicate determination from a representative experiment that was repeated at least twice. The results are expressed as a percentage of control, drug-free wells.
The cytotoxic effect of the drugs was evaluated by utilizing the MTT cell viability assay, a standard assay for assessing drug resistance and its reversal. Routinely, MCF-7-AdrR cells were exposed to increasing concentrations of drugs for 48 h and the number of viable cells was quantitated after adding the MTT reagent.

[2] = tested on: MCF-7-AdrR cells; assay: TMR (tetramethylrosamine chloride) accumulation, in vitro drug uptake model; assay type: cell-based, human; conditions: for effect on TMR accumulation / maximal stimulation of TMR accumulation: MCF-7-AdrR cells; for effect on TMR accumulation: FIG. 1A/1B; for EC50: Homo sapiens, 0.5 h, read-out: concentration half maximally effective on TMR accumulation; for maximal stimulation of TMR accumulation: 10 μM TMR, 30 minutes at 37° C., relative to TMR alone
Protocol: The effect of steroidal alkaloids on drug transport was examined by measuring cellular accumulation of TMR, a fluorescent model drug, according to Eytan et al. (Eytan, G. D. et al., Eur. J. Biochem. 248: 104-112, 1997) with some modifications. Cells were seeded in 24-well tissue culture plates at a density of 0.5×10^5 cells/well and were grown for 24 h in growth medium supplemented with 0.5% FCS. TMR (diluted from a 10 mM stock in DMSO) was added to the cells at a final concentration of 10 μM, in 0.5 ml of growth medium in the presence or absence of the tested alkaloids (given prior to the dye as indicated). Cells were incubated with TMR and the tested drug for 30 minutes at 37° C. To terminate the assay, the plates were placed on ice and the cells were washed three times with ice-cold phosphate-buffered saline (PBS) in order to remove residual TMR. The cells were then lysed by incubation with 0.5 ml of 0.5 N NaOH for 20 minutes at room temperature, and the lysates were neutralized with 0.5 ml of 0.5 N HCl and collected. Cell-associated TMR was determined by measuring the fluorescence intensity of the lysates using a fluorescence spectrophotometer (excitation at 555-nm, emission at 575-nm). Blank values obtained at zero time were subtracted from all the fluorescence values and the results were normalized to the amount of cellular protein in each well. Experiments were carried out in triplicates and were repeated at least twice. Results are expressed as a percentage of incubations with TMR alone.
Expression of multidrug transporters markedly decreases drug accumulation in MDR cells. Conversely, in such cells drug accumulation is increased by inhibition of P-gp and related proteins with MDR reversal agents. TMR accumulation was utilized to examine the effect of steroidal alkaloids on P.gp in MCF-7-AdrR adriamycin-resistant human breast adenocarcinoma cells.

[3] = literature (Keeler, 1978; Gaffield and Keeler, 1996); cited from earlier work
[4] = 10 μM tested compound, increasing vinblastine, 48 h, FIG. 5

COc1ccc(CCN(C)CCCC(C#N)(c2ccc(OC)c(OC)c2)C(C)C)cc1OC (stereo not drawn) [verapamil, reference compound]
effect on drug (adriamycin) sensitivity of MCF-7-AdrR cells ([1]; preliminary experiments, data not shown): markedly increase their drug sensitivity | effect on TMR accumulation [2]: back to near normal levels

CC1=C2C[C@H]3[C@@H](CC=C4C[C@@H](O)CC[C@@]43C)[C@@H]2CC[C@]12O[C@@H]1C[C@H](C)CN[C@H]1[C@H]2C [cyclopamine]
teratogenic activity [3]: potent teratogen | reduction of cell viability by adriamycin in the presence of the steroidal alkaloid ([1]; 48 h): ~90% | EC50 ([1]; 48 h): 2.5 µM | reduction of cell survival by the steroidal alkaloid alone ([1]; 48 h): 10-20% | EC50 [2]: ~1 µM | maximal stimulation of TMR accumulation [2]: 2 fold | effect on TMR accumulation [2]: concentration-dependent increase

C[C@@H]1CN[C@H]2[C@@H](C)[C@@]3(CC[C@H]4[C@@H]5CC[C@H]6C[C@@H](O)CC[C@]6(C)[C@H]5C(=O)[C@@H]4[C@H]3C)O[C@@H]2C1 [tetrahydrojervine]
sensitization to vinblastine: shift of concentration-response curve to the left [1, 4]: most effective

cyclopamine-4en-3-one [cylopamine4-en-3-one]
sensitization to vinblastine: shift of concentration-response curve to the left [1]: most effective

CC1=C2C(=O)[C@H]3[C@@H](CC=C4C[C@@H](O)CC[C@@]43C)[C@@H]2CC[C@]12O[C@@H]1C[C@H](C)CN[C@H]1[C@H]2C [jervine]
sensitization to vinblastine: shift of concentration-response curve to the left [1, 4]: most effective

Cc1c([C@H](C)[C@@H]2NC[C@@H](C)C[C@H]2O)ccc2c1C[C@H]1[C@H]2CC=C2C[C@@H](O)CC[C@@]21C [veratramine]
sensitization to vinblastine ([1]; 1 μM veratramine, increasing vinblastine, 48 h, FIG. 5): sensitize

C[C@H]1CC[C@]2(NC1)O[C@H]1C[C@H]3[C@@H]4CC[C@H]5C[C@@H](O)CC[C@]5(C)[C@H]4CC[C@]3(C)[C@H]1[C@@H]2C [tomatidine]
teratogenic activity [3]: no teratogenic activity | reduction of cell viability by adriamycin in the presence of the steroidal alkaloid ([1]; 48 h): more than 90% | EC50 ([1]; 48 h): 5 µM | reduction of cell survival by the steroidal alkaloid alone ([1]; 48 h): modest cytotoxic activity of its own | reduction of cell survival by the steroidal alkaloid alone ([1]; 48 h, listed as Tomatidine): 20-25% | EC50 [2]: ~1 µM | maximal stimulation of TMR accumulation [2]: 2.5 fold | effect on TMR accumulation [2]: concentration-dependent increase
